Earlier results on one molecule are cited in patent publication US20200155510A1, “TREATMENT OF AUTOIMMUNE DISORDERS, SUCH AS RELAPSING REMITTING MULTIPLE SCLEROSIS AND […] SYNDROME WITH BIOTIN COMPOSITIONS” (JDS Therapeutics, LLC, priority 2018, published 2020).

The conditions of the series: relative to biotin; background statement, no method given.

On to `O=C(O)CCCC[C@@H]1SC[C@@H]2NC(=O)N[C@@H]21` [Magnesium biotinate, Magnesium D-biotinate], for which the water solubility result is on record as “more water soluble than biotin”.
